Assay results: patent US20110319461A1, “NOVEL SALTS, POLYMORPHS, AND SYNTHETIC PROCESSES REGARDING IMIDAZOLE DERIVATIVE” (Ore Pharmaceuticals Inc., priority 2010, published 2011)
Like-named read-outs stand apart in the source and are kept apart here.

Key:
ACE = ACE (Homo sapiens, UniProt P12821); conditions: per Dales et al.; read-out: IC50 against ACE (selectivity); cited from earlier work
Water solubility = type: physicochemical
[1] = test system: acute dextran sodium sulfate-induced colitis in mice; conditions: as reported by Byrnes et al., cited from earlier work
CPDA = biological target: T1, CPDA (Bos taurus, UniProt P00730); conditions: per Dales et al.; read-out: IC50 against CPDA (selectivity); cited from earlier work
T1 sequence (P00730 111-419): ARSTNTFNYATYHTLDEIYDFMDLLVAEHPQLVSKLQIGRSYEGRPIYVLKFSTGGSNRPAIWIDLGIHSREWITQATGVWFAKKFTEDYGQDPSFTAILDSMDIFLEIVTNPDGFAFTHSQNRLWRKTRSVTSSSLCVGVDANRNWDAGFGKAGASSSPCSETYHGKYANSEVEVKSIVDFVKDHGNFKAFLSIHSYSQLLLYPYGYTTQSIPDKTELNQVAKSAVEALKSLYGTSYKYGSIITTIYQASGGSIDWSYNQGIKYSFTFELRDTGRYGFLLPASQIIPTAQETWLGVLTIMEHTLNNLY

[2] = test system: NSAID-induced gastric damage in rats; experiment: NSAID-induced gastric damage; type: in vivo
[3] = test system: upper gastrointestinal tract of the mouse; experiment: Anti-inflammatory effects in the upper gastrointestinal tract; type: in vivo
ACE2 = ACE2 (Homo sapiens, UniProt Q9BYF1); conditions: cited from earlier work
[4] = test system: acute dextran sodium sulfate-induced colitis in mice; experiment: Acute dextran sodium sulfate (DSS)-induced colitis; type: in vivo; conditions: for DSS-induced colon shortening: high dose Compound (I) and sulfasalazine
Excerpt: 2-[1-(S)-carboxy-2(S)-[3-(3,5-dichloro-benzyl)-3H-imidazol-4-yl]-ethylamino]-4-methyl-pentanoic acid, herein also referred to as Compound (I), is described in U.S. Pat. No. 6,632,830, U.S. Pat. No. 7,045,532, and WO 00/066104, each herein incorporated by reference in their entirety. Additionally, Compound (I) is discussed in “Substrate-Based Design of the First Class of Angiotensin-Converting Enzyme-Related Carboxypeptidase (ACE2) Inhibitors”, Dales, N. A., et al., J. Amer. Chem. Soc., 2002, 124, 11852-11853, incorporated by reference. As reported by Byrnes et al., Effects of the ACE2 inhibitor GL1001 on acute dextran sodium sulfate-induced colitis in mice, Inflamm. […] Doses of Compound (I) ameliorated DSS-induced disease activity, including rectal prolapsed and intestinal bleeding. […] Compound (I) provides therapeutic potential for inflammatory bowel disease.
Exposure to DSS prior to vehicle treatment (vehicle+DSS group) produced a time-dependent decrease in body weight that recovered by day 15. This body weight loss and recovery was similar in animals having received repeated doses of Compound (I) (300 mg/kg).
Disease activity index (DAI), namely rectal prolapsed, stool consistency, and fecal occult blood) was assessed every other day throughout the experiment. By experimental day 7, significant DSS-induced disease began to emerge, and trends toward recovery were observed by day 11. Statistical analyses were conducted on data obtained on the days of peak severity: day 7 (presence of fecal blood and diarrhea) and day 9 (rectal prolapse). All DAI data were analyzed by one-way ANOVA. Compared to non-DSS controls, DSS treatment markedly elevated scores for fecal occult blood, stoll consistency, and rectal prolapsed. These effects were attenuated by Compound (I) (300 mg/kg).
On experimental day 15, colon was obtained from each animal and length was measured. […] No effects of 30 or 100 mg/kg on DSS-induced colon shrinkage were observed (P>0.05 for all). Total histopathology score (inflammation+glandular epithelial loss+mucosal erosion) for each treatment group is represented with a maximum obtainable score of 15. One-way ANOVA indicated significant DSS_induced damage (vs. non-DSS control) in each region studied, with the most damage occurring in the distal colon.

[5] = Storage stability of the drug substance; type: physicochemical
[6] = profound effect in the distal segment

Sequence of ACE2 (Q9BYF1 18-805): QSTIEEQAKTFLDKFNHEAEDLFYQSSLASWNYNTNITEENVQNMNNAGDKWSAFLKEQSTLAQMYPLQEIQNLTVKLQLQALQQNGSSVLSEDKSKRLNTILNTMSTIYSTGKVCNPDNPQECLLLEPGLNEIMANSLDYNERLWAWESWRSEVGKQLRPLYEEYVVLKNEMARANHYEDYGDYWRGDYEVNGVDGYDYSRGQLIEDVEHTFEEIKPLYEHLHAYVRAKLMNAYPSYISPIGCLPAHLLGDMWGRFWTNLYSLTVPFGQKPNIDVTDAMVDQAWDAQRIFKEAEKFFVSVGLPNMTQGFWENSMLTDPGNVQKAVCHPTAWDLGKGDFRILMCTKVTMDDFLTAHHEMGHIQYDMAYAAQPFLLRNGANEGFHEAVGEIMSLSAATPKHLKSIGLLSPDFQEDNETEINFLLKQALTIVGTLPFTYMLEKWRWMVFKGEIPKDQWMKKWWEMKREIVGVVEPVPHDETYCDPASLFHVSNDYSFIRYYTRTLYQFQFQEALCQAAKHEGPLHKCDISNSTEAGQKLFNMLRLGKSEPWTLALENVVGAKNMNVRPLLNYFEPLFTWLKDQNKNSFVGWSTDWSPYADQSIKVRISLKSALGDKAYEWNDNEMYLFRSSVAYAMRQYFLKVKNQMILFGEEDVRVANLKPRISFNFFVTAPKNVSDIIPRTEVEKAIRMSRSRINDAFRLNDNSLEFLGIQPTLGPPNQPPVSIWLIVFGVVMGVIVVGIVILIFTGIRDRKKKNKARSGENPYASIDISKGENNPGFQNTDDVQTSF
Sequence of ACE (P12821 1-732 isoform P12821-3): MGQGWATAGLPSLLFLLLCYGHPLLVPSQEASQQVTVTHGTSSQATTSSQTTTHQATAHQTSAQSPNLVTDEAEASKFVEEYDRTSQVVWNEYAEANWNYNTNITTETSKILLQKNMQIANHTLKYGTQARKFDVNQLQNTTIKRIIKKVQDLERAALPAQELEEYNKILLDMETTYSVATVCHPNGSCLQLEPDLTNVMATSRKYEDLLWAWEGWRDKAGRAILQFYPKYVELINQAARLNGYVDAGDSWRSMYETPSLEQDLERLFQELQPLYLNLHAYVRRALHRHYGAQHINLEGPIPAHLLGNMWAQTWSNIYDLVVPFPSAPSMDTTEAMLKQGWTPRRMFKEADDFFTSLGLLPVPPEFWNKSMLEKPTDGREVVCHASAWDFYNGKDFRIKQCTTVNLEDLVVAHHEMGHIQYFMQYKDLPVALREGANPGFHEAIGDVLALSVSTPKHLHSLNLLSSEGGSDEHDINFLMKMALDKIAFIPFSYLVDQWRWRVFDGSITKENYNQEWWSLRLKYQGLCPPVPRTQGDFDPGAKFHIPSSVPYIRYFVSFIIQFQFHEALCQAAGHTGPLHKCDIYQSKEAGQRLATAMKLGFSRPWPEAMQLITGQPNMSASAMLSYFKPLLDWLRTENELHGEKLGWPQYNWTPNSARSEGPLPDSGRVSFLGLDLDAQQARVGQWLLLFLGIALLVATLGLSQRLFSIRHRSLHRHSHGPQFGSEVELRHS

For `CC(C)C[C@H](N[C@@H](Cc1cncn1Cc1cc(Cl)cc(Cl)c1)C(=O)O)C(=O)O` [Compound (I), 2-[1-(S)-carboxy-2(S)-[3-(3,5-dichloro-benzyl)-3H-imidazol-4-yl]-ethylamino]-4-methylpentanoic acid], the IC50 (ACE) is given as greater than 50 µM, the “water solubility” value (Water solubility) is given as “excellent” and the “water solubility” value (Water solubility; listed as dicarboxylic acid) is given as “limited”. For the same compound, the “DSS-induced disease activity, including rectal prolapse and intestinal bleeding” value [1] was “ameliorated”, the colon pathology [1, 6] was “markedly attenuated” and the myeloperoxidase activity [1, 6] was “markedly attenuated”. For the same compound, the IC50 (CPDA) was greater than 50 µM, the “protection against NSAID-induced gastric damage” value [2] was “protects against NSAID-induced gastric damage” and the “anti-inflammatory effects in the upper gastrointestinal tract” value [3] was “exhibits anti-inflammatory effects”. The “ACE2 inhibitor potency and selectivity” value (ACE2) was “potent and selective”, the body weight recovery ([4]; 30 mg/kg, by day 15) was “compete recovery by day 15” and the “body weight loss and recovery compared with vehicle+DSS group” value ([4]; 300 mg/kg repeated b.i.d., days 5-15) was “similar”. For the same compound, the “disease activity index (fecal occult blood, stool consistency, rectal prolapse) elevated by DSS” value ([4]; 300 mg/kg, day 7 and day 9) was “attenuated”, the “DSS-induced damage in the distal colon (total histopathology score)” value ([4]; 300 mg/kg, day 15) was “significantly attenuated” and the body weight reduction ([4]; 30 and 100 mg/kg, maximum effects on day 9) was “exhibited the largest weight reduction”. For the same compound, the “effect on any DAI parameter” value ([4]; 30 or 100 mg/kg, all P>0.05) was “no effects were observed”, the DSS-induced colon shrinkage ([4]; day 15, 30 or 100 mg/kg, P>0.05) was “No effects” and the DSS-induced colon shortening ([4]; day 15) was “reversed”. For the same compound, the “long-term stability / degradation” value ([5]; ambient temperature and humidity, 7 years) was “no apparent degradation”.

In the case of `CC(C)C[C@@H](N[C@H](Cc1cncn1Cc1cc(Cl)cc(Cl)c1)C(=O)O)C(=O)O` [R,R isomer, 2-[1-(R)-carboxy-2(R)-[3-(3,5-dichloro-benzyl)-3H-imidazol-4-yl]-ethylamino]-4-methylpentanoic acid, reference compound], the IC50 (ACE2; stereoisomers of Compound (I), per Dales et al., read-out: activity of the isomer (ACE2 inhibition)) is listed as greater than 50 µM.

In the case of `CC(C)C[C@H](N[C@@H](Cc1cncn1Cc1cc(Cl)cc(Cl)c1)C(=O)[O-])C(=O)[O-].[Na+].[Na+]` [disodium salt anhydrate], the “stability” value ([5]; ambient temperatures) is reported as “unstable, thermally sensitive, and subject to oxidation at ambient temperatures”.

With `O=C(O)c1cc(/N=N/c2ccc(S(=O)(=O)Nc3ccccn3)cc2)ccc1O` [sulfasalazine, reference compound] the “rectal prolapse and bleeding (DAI)” value ([4]; 150 mg/kg, compared with Compound (I) 300 mg/kg) was “similarly efficacious”, the DSS-induced colon shortening ([4]; day 15) was “reversed” and the “body weight recovery compared with vehicle+DSS and Compound (I) 300 mg/kg groups” value ([4]; sulfasalazine-treated animals, day 15) was “did not recover to the same extent by day 15”.
